Key:
[1] = tested on: MRSA IID 1677; experiment: Proliferation suppression against MRSA in a diluted medium (OD600); type: cell-based, Methicillin-Resistant Staphylococcus Aureus (MRSA); conditions: diluted 1/2.5 LB medium, 37° C., OD 600 nm; complex 0.001%, lysozyme, chitosan and each of mixture 0.0005%; FIG. 1
Protocol: (§1) This test employed MRSA IID 1677, and this microbe strain was cultured in a normal broth medium at 37° C. for 20 hours. The cultured microbial solution was collected by centrifugation (3000 rpm, 10 minutes), suspended with sterilized water, and then diluted with sterilized water so that the optical density would satisfy OD600=1.0. The resultant was diluted 2000 times (corresponding to 10^6 CFU/ml) to prepare a reaction microbial solution.
Each of the LB test medium samples was added with 100 μl of reaction microbial solution and was shake cultured under the condition of 37° C. for 48 hours. Here, the LB test medium samples were prepared using 10 ml of 1/2.5 LB medium added with
(1) 10 ml of sterilized water, (2) 10 ml of the lysozyme-chitosan complex with a concentration of 0.002% (the concentration after addition was 0.001%), (3) 10 ml of lysozyme alone with a concentration of 0.001% (the concentration after addition was 0.0005%), (4) 10 ml of chitosan alone with a concentration of 0.001% (the concentration after addition was 0.0005%), and (5) 10 ml of the mixture of lysozyme and chitosan with a concentration of 0.001% (the concentration of each after addition was 0.0005%).
(§2) After that, 3 ml was extracted at time intervals (0, 1, and 2 days), and the optical density was measured at an absorption wavelength of 600 nm. […]

[2] = tested on: Pseudomonas aeruginosa NBRC 13275; experiment: Proliferation suppression against pseudomonas aeruginosa in a diluted medium (OD600); type: cell-based; conditions: diluted 1/2.5 TSB medium with phosphate buffer pH 7.0; complex 0.01%; FIG. 2
Protocol: as §1, with “Pseudomonas aeruginosa NBRC 13275,” for “MRSA IID 1677,”
Each of the TSB test medium samples was added with 100 μl of reaction microbial solution and was shake cultured under the condition of 37° C. for 48 hours. Here, the TSB test medium samples were prepared using 10 ml of 1/2.5 TSB medium added with 200 μl of 1 M phosphate buffer (pH 7.0), followed by further addition of […]
as §2

[3] = tested on: MRSA IID 1677; experiment: Proliferation suppression against MRSA in a standard medium (colony count method); type: cell-based, Methicillin-Resistant Staphylococcus Aureus (MRSA)
Protocol: This test employed MRSA IID 1677, and this microbe strain was inoculated in 20 ml of a normal broth medium (manufactured by Eiken Chemical Co., Ltd., ‘Eiken’) for overnight shake culture at 37° C. The cultured microbial solution was collected by centrifugation (3000 rpm, 10 minutes), suspended with sterilized water, and then diluted with sterilized water so that the optical density would satisfy OD600=1.0. The resultant was diluted 2000 times (corresponding to 10^6 CFU/ml) to prepare a reaction microbial solution.
Here, the TSB test medium samples were prepared using 10 ml of TSB medium (BD BBL™) added with 200 μl of 1 M phosphate buffer (pH 7.0), followed by further addition of
(1) 10 ml of sterilized water, ([…]), (3) 10 ml of lysozyme alone with a concentration of 0.2% (the concentration after addition was 0.1%), (4) 10 ml of chitosan alone with a concentration of 0.2% (the concentration after addition was 0.1%), and (5) 10 ml of the mixture of lysozyme and chitosan with a concentration of 0.2% (the concentration of each after addition was 0.1%).
After that, 100 μl was extracted and seeded on the MH agar medium, and the number of colonies produced was observed (colony count method). […] Note that the results of FIG. 7 are each the average value of the values obtained by carrying out the colony count method three times.
Note that the results of FIG. 8 are each the average value obtained with two replicate samples.

[4] = tested on: MRSA IID 1677; experiment: MRSA-resistant microbe acquisition protocol (microdilution method); type: cell-based, Methicillin-Resistant Staphylococcus Aureus (MRSA); conditions: subculture 25 generations; FIG. 12
Protocol: This test employed MRSA IID 1677, and a resistant microbe acquisition protocol was carried out by use of the microdilution method proposed by Japanese Society of Chemotherapy.

[5] = tested on: pseudomonas aeruginosa; experiment: Observation of morphological change in pseudomonas aeruginosa by electron microscope; type: cell-based
Protocol: Next, the morphological change in MRSA was observed by using a transmission electron microscope. This observation with a transmission electron microscope was carried out as follows: the sample was sliced in 50 nm with a diamond knife as the pretreatment and was stained with uranium acetate and lead citrate, and a transmission electron microscope (JEM-1400 manufactured by JEOL Ltd.) was used. In addition, the samples were MRSA added with physiological saline and MRSA added with a lysozyme-chitosan complex with a concentration of 0.2% by mass.
Note that the morphological change in the case of adding the lysozyme-chitosan complex to pseudomonas aeruginosa was also observed using a transmission electron microscope in the same manner as above. […] In other words, the lysozyme-chitosan complex also has a resistant microbe inactivation effect for pseudomonas aeruginosa.
Observation was carried out with a scanning electron microscope for the morphological changes in MRSA and pseudomonas aeruginosa treated with the lysozyme-chitosan complex, lysozyme alone, chitosan alone, and the mixture of lysozyme and chitosan (treatment time: 2 hours). This observation with a scanning electron microscope was carried out in the same manner as Example 8 described above: osmium coating (4 nm) was performed as the conductive treatment, and a low-acceleration ultra-high resolution scanning electron microscope (SU 9000 manufactured by Hitachi High-Technologies Corporation (accelerating voltage: 1 kV)) was used. In addition, the samples were MRSA or pseudomonas aeruginosa added with physiological saline, a lysozyme-chitosan complex with a concentration of 0.1% by mass, lysozyme of 0.05% by mass, chitosan of 0.05% by mass, and a mixture of lysozyme and chitosan, each with 0.05% by mass.

lysozyme-chitosan complex: complex of lysozyme and water-soluble chitosan (molecular weight 14000 Da) bound to each other through the Maillard reaction
proliferation suppression effect against MRSA for 48 hours [1]: marked improvement effect compared to lysozyme alone and the mixture of lysozyme and chitosan | proliferation suppression effect against pseudomonas aeruginosa past 24 hours [2]: strong proliferation suppression effect | proliferation suppression effect against MRSA (ratio of colonies produced 6 hours later to control) ([3]; standard TSB medium with phosphate buffer pH 7.0, complex 0.2%, lysozyme, chitosan, each of mixture 0.1%, FIG. 7): marked improvement effect compared to chitosan alone and the mixture of lysozyme and chitosan | proliferation suppression effect against MRSA 9 hours later ([3]; standard TSB medium, any of the complex concentrations 0.01%, 0.05%, 0.1%, 0.2%, FIG. 8): sufficient proliferation suppression effect | ratio of the number of MRSA colonies produced to the control ([3]; standard TSB medium, complex 0.2%, past 6 hours, FIG. 8): ~0% | change of MIC (minimum inhibitory concentration) on subculture [4]: hardly changed | morphological change in pseudomonas aeruginosa, transmission electron microscope ([5]; FIG. 15): destroys the cell walls of pseudomonas aeruginosa | morphological change in pseudomonas aeruginosa, scanning electron microscope, treatment time 2 hours ([5]; complex 0.1% by mass, lysozyme 0.05%, chitosan 0.05%, mixture each 0.05%, FIG. 17): changed to a large extent
